Reference: ChEMBL document CHEMBL1949611, “Functional characterization of rat glutaryl-CoA dehydrogenase and its comparison with straight-chain acyl-CoA dehydrogenase” (Bioorg Med Chem Lett, 2011)
The source made the active and inactive calls. The rule behind the calls is not given here.

Tests used:
Rattus norvegicus [1] = species on record: Rattus norvegicus; assay: Irreversible inhibition of rat glutaryl-co A dehydrogenase by dialysis method
Rattus norvegicus [2] = species on record: Rattus norvegicus; assay: Irreversible inhibition of rat glutaryl-co A dehydrogenase by HPLC analysis
Rattus norvegicus [3] = species on record: Rattus norvegicus; assay: (§1) Inhibition of rat glutaryl-co A dehydrogenase by spectrophotometry; conditions: for inhibition: TDE = time-dependent effect
[4] = as §1
Rattus norvegicus [5] = species on record: Rattus norvegicus; assay: Time-dependent inhibition of rat glutaryl-co A dehydrogenase after 30 mins by spectrophotometry
Rattus norvegicus [6] = species on record: Rattus norvegicus; assay: Ratio of Kcat to Km for rat glutaryl-co A dehydrogenase expressed in Escherichia coli BL21
Rattus norvegicus [7] = species on record: Rattus norvegicus; assay: Activity of rat glutaryl-co A dehydrogenase expressed in Escherichia coli BL21
Rattus norvegicus [8] = species on record: Rattus norvegicus; assay: Activity of rat glutaryl-co A dehydrogenase E370Q mutant expressed in Escherichia coli BL21
Rattus norvegicus [9] = species on record: Rattus norvegicus; assay: Activity of rat glutaryl-co A dehydrogenase E370A mutant expressed in Escherichia coli BL21
Rattus norvegicus [10] = species on record: Rattus norvegicus; assay: Time-dependent inhibition of rat glutaryl-co A dehydrogenase after 160 mins by spectrophotometry

| Structure (SMILES) | kcat/Km (10'-3/microM/s) (Rattus norvegicus [6]) | Km (Rattus norvegicus [7]) | Vmax (Rattus norvegicus [7]) | kcat (Rattus norvegicus [7]) | kcat/Km (Rattus norvegicus [6]) | further results |
| --- | --- | --- | --- | --- | --- | --- |
| CCCCCC#CC(=O)SCCNC(=O)CCNC(=O)C(O)C(C)(C)COP(=O)(O)OP(=O)(O)OC[C@H]1O[C@@H](n2cnc3c(N)ncnc32)[C@H](O)[C@@H]1OP(=O)(O)O (stereo not given in full) |  |  |  |  |  | inhibition (Rattus norvegicus [1]): Active; inhibition (Rattus norvegicus [2]): Active; Kinact (Rattus norvegicus [3]): 0.2 min⁻¹; inhibition (Rattus norvegicus [3]): tde; Ki [4]: 18 µM; inhibition (Rattus norvegicus [5]): 2% |
| CC/C=C/CC(=O)SCCNC(=O)CCNC(=O)C(O)C(C)(C)COP(=O)(O)OP(=O)(O)OC[C@H]1O[C@@H](n2cnc3c(N)ncnc32)[C@H](O)[C@@H]1OP(=O)(O)O (stereo not given in full) | 1.9 | 51 µM | 136 nmol/mg/min | 0.099 s⁻¹ |  |  |
| CCCCCC/C=C/CC(=O)SCCNC(=O)CCNC(=O)C(O)C(C)(C)COP(=O)(O)OP(=O)(O)OC[C@H]1O[C@@H](n2cnc3c(N)ncnc32)[C@H](O)[C@@H]1OP(=O)(O)O (stereo not given in full) |  | 74 µM | 27 nmol/mg/min | 0.02 s⁻¹ | 2.7 ×10⁻⁴ /µM/s |  |
| CC/C=C\CC(=O)SCCNC(=O)CCNC(=O)C(O)C(C)(C)COP(=O)(O)OP(=O)(O)OC[C@H]1O[C@@H](n2cnc3c(N)ncnc32)[C@H](O)[C@@H]1OP(=O)(O)O (stereo not given in full) | 4.9 | 49 µM | 331 nmol/mg/min | 0.24 s⁻¹ |  | kcat (Rattus norvegicus [8]): 0.0021 s⁻¹; kcat (Rattus norvegicus [9]): 0.00078 s⁻¹ |
| CCCCCCCCCC(=O)SCCNC(=O)CCNC(=O)C(O)C(C)(C)COP(=O)(O)OP(=O)(O)OC[C@H]1O[C@@H](n2cnc3c(N)ncnc32)[C@H](O)[C@@H]1OP(=O)(O)O (stereo not given in full) | 3.3 | 54 µM |  | 0.18 s⁻¹ |  |  |
| CCCC/C=C\CC(=O)SCCNC(=O)CCNC(=O)C(O)C(C)(C)COP(=O)(O)OP(=O)(O)OC[C@H]1O[C@@H](n2cnc3c(N)ncnc32)[C@H](O)[C@@H]1OP(=O)(O)O (stereo not given in full) | 1.3 | 66 µM | 113 nmol/mg/min | 0.083 s⁻¹ |  |  |
| CCCCCC(=O)SCCNC(=O)CCNC(=O)C(O)C(C)(C)COP(=O)(O)OP(=O)(O)OC[C@H]1O[C@@H](n2cnc3c(N)ncnc32)[C@H](O)[C@@H]1OP(=O)(O)O (stereo not given in full) |  | 20 µM |  | 2.1 s⁻¹ | 110000 M⁻¹ s⁻¹ |  |
| CCCC/C=C/CC(=O)SCCNC(=O)CCNC(=O)C(O)C(C)(C)COP(=O)(O)OP(=O)(O)OC[C@H]1O[C@@H](n2cnc3c(N)ncnc32)[C@H](O)[C@@H]1OP(=O)(O)O (stereo not given in full) |  | 58 µM | 56 nmol/mg/min | 0.041 s⁻¹ | 7.1 ×10⁻⁴ /µM/s |  |
| CCCC(=O)SCCNC(=O)CCNC(=O)C(O)C(C)(C)COP(=O)(O)OP(=O)(O)OC[C@H]1O[C@@H](n2cnc3c(N)ncnc32)[C@H](O)[C@@H]1OP(=O)(O)O (stereo not given in full) |  | 12 µM |  | 2.7 s⁻¹ | 230000 M⁻¹ s⁻¹ |  |
| CCCCCC/C=C\CC(=O)SCCNC(=O)CCNC(=O)C(O)C(C)(C)COP(=O)(O)OP(=O)(O)OC[C@H]1O[C@@H](n2cnc3c(N)ncnc32)[C@H](O)[C@@H]1OP(=O)(O)O (stereo not given in full) |  | 88 µM | 62 nmol/mg/min | 0.046 s⁻¹ | 5.2 ×10⁻⁴ /µM/s |  |
| CCCCCCCC(=O)SCCNC(=O)CCNC(=O)C(O)C(C)(C)COP(=O)(O)OP(=O)(O)OC[C@H]1O[C@@H](n2cnc3c(N)ncnc32)[C@H](O)[C@@H]1OP(=O)(O)O (stereo not given in full) |  | 28 µM |  | 1.1 s⁻¹ |  | kcat/Km (10'-2/microM/s) (Rattus norvegicus [6]): 3.9 |
| CCC/C=C/C#CC(=O)SCCNC(=O)CCNC(=O)C(O)C(C)(C)COP(=O)(O)OP(=O)(O)OC[C@H]1O[C@@H](n2cnc3c(N)ncnc32)[C@H](O)[C@@H]1OP(=O)(O)O (stereo not given in full) |  |  |  |  |  | inhibition (Rattus norvegicus [1]): Active; inhibition (Rattus norvegicus [2]): Active; Kinact (Rattus norvegicus [3]): 0.024 min⁻¹; inhibition (Rattus norvegicus [3]): tde; Ki [4]: 43 µM; inhibition (Rattus norvegicus [10]): 20% |
